Values of other authors in publication PMC6105164 (Cancer Chemotherapy and Pharmacology, 2018).

Columns and labels:
prenylation of RAS = test system: prenylation of RAS; design: method as in PMID 22020205, PMID 15084616, PMID 15459217; details: cited from earlier work
[1] = test system: patients with KRAS mutations; design: method as in PMID 24024839, PMID 18316791, PMID 23182985; details: cited from earlier work

Cn1cncc1[C@@](N)(c1ccc(Cl)cc1)c1ccc2c(c1)c(-c1cccc(Cl)c1)cc(=O)n2C [tipifarnib]
activity in clinical trials (prenylation of RAS): a little activity

panitumumab: EGF receptor inhibitor
efficacy [1]: a little efficacy
